PMC11467737, “Osteocalcin binds to a GPRC6A Venus fly trap allosteric site to positively modulate GPRC6A signaling” (FASEB BioAdvances, 2024)
Residue numbers refer to the chain shown, from its start. Bridge positions count the residues as written; N and C are the ends. Ends that are not written are not given here.

Key:
K352E/H355P hGPRC6A = target: T1, K352E/H355P hGPRC6A (Homo sapiens, UniProt Q5T6X5, H355P/K352E); assay: ERK activation in HEK-293 cells transfected with K352E/H355P hGPRC6A; type: cell-based; conditions: for ERK activation by Ocn small fragments: K352E/H355P double mutant, fragment at 20 nM, Figure 6D
T1 construct: expressed in transfected cells; host or cells: HEK-293, pcDNA3
T1 sequence (Q5T6X5 19-926 K352E/H355P): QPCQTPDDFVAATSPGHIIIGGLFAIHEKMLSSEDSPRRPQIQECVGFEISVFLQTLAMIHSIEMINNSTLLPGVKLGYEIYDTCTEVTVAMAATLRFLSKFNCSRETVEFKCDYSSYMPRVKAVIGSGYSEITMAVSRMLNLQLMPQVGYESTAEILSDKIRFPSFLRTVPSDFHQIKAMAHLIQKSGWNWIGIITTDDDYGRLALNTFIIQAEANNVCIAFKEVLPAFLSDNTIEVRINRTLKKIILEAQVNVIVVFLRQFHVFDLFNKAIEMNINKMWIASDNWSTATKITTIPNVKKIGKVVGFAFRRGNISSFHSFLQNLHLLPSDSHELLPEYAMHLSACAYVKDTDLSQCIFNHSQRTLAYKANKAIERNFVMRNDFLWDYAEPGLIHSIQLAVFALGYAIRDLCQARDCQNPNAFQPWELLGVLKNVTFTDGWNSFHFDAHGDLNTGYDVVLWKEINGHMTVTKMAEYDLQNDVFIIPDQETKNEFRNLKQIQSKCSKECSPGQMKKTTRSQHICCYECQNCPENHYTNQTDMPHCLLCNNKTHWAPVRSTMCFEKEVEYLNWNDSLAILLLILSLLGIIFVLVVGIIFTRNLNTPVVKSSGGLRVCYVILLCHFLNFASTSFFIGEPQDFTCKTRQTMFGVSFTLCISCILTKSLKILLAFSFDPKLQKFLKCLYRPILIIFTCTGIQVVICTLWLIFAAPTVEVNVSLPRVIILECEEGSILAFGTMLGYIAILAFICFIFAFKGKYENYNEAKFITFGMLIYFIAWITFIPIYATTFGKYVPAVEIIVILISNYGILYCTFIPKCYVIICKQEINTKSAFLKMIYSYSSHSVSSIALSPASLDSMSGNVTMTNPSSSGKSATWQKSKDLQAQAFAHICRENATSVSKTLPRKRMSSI
Protocol: All culture reagents were from Invitrogen (Waltham, MA, USA). Human embryonic kidney HEK‐293 cells were obtained from American Type Culture Collection and cultured in DMEM medium supplemented with 10% fetal bovine serum and 1% Penicillin/Streptomycin (P/S). Briefly, HEK‐293 cells transfected with/without human GPRC6A isoforms cDNA plasmids were starved by overnight incubation in serum‐free DMEM/F12 containing 0.1% bovine serum albumin (BSA) and stimulated with various ligands at different doses. ERK activation was assessed 20 min after treatment by using ERK1/2 (phospho‐T203/Y204) ELISA Kit (Invitrogen; Waltham, MA, USA) corrected for the amount of total ERK using ERK1/2 (Total) ELISA Kit (Invitrogen; Waltham, MA, USA) to measure ERK levels.
In‐vitro mutagenesis by PCR‐mediated recombination QuikChange II XL Site‐Directed Mutagenesis Kit (Agilent) was performed using the cDNA of human GPRC6A cloned in the vector pcDNA3 (Invitrogen) as a template. The primer sets are as follows. K352E.sen: […]; K352E.antisen: […]; H355P.sen: […]; H355P.antisen: […]; K352E/H355P.sen: […]; and K352E/H355P.antisen: […]. All mutants were confirmed by sequencing.

human GPRC6A isoform 1 = target: T2, human GPRC6A isoform 1 (Homo sapiens, UniProt Q5T6X5); assay: cAMP accumulation in HEK-293 cells transfected with human GPRC6A isoform 1 (wild-type, full length); type: cell-based; conditions: for cAMP accumulation by synthesized human Ocn fragments: fragments at 20 nM, Figure 3C / S5C
T2 construct: expressed in transfected cells; host or cells: HEK-293, pcDNA3-hGPRC6A
T2 sequence (Q5T6X5 19-926): T1 sequence (Q5T6X5 19-926 K352E/H355P) with E334K, P337H
Protocol: HEK‐293 transfected with human GPRC6A isoform cDNA plasmids cells (10^5 cells/well)[30] were cultured in 24‐well plates in DMEM supplemented with 10% fetal bovine serum and 1% penicillin/streptomycin (100 U/mL of penicillin and 100 μg/mL of streptomycin) for 48 h followed by 4 h incubation in DMEM/F12 containing 0.1% BSA and 0.5 mM IBMX to achieve quiescence and preventing cAMP degradation. Quiescent cells were treated with vehicle control, various ligands at concentration as indicated for 40 min at 37°C. Then, the reaction was stopped, and the cells lysed with 0.5 mL 0.1 N HCl. cAMP levels were measured by using Cyclic AMP EIA kit (Cayman Chemical; Ann Arbor, MA, USA) following the manufacture's protocol.

[1] = HEK-293 with pcDNA3-hGPRC6A, 40 min

Substance	ERK activation by Ocn small fragments (K352E/H355P hGPRC6A)	cAMP accumulation by synthesized human Ocn fragments (human GPRC6A isoform 1; [1])	Potency compared to full-length Ocn 1–49, cAMP dose response (human GPRC6A isoform 1; HEK-293 with pcDNA3-hGPRC6A, Figure S5A)	ERK phosphorylation, dose response of full-length Ocn, versus wild-type receptor (K352E/H355P hGPRC6A; K352E/H355P mutant, Figure 6B)	cAMP accumulation, dose response of full-length Ocn (human GPRC6A isoform 1; WT hGPRC6A, Figure 6A)	Ocn-induced cAMP accumulation, dose response (human GPRC6A isoform 1; isoform 1, Ocn 1.73, 8.65, 17.3, 26.0 nM, 1 mM calcium, 40 min, Figure 2C)
RFYGPV [Ocn 44–49, synthesized human Ocn C‐terminal hexapeptide]	partially activate	high activity				
REVCELNPDC (disulfide 4-10 (inferred)) [Ocn 20–29, synthesized human Ocn decapeptide fragment located in the middle of the protein]	no response	high activity	greater potency			
osteocalcin (YLYQWLGAPVPYPDPLEPRREVCELNPDCDELADHIGFQEAYRRFYGPV; not fully specified; ends and bridges not checked; UniProt P02818 52-100, looked up) [Ocn 1–49, full human Ocn (49 aa) synthesized by BioMatik; methods also describe decarboxylated Ocn purified from bovine tibial bone, reference compound]				significantly decreased	dose‐dependently stimulated	activated GPRC6A isoform 1 in a dose dependent manner
